Measured values reported in ChEMBL document CHEMBL1221167, “Small-molecule inhibition of siderophore biosynthesis in Mycobacterium tuberculosis and Yersinia pestis” (Nat Chem Biol, 2005).
Active and inactive are the calls of the source. The calls are words filed in the database; no cut-off is given here.

Assays:
[1] = target: T1, AMP-binding enzyme family protein (Yersinia pestis) (UniProt Q56950); assay: Inhibition of His6-tagged Yersinia pestis YbtE-mediated [3H]salicyl-ypArCP-H6 formation up to 400 uM after 1.5 hrs by microplate counting
T1 sequence (whole entry): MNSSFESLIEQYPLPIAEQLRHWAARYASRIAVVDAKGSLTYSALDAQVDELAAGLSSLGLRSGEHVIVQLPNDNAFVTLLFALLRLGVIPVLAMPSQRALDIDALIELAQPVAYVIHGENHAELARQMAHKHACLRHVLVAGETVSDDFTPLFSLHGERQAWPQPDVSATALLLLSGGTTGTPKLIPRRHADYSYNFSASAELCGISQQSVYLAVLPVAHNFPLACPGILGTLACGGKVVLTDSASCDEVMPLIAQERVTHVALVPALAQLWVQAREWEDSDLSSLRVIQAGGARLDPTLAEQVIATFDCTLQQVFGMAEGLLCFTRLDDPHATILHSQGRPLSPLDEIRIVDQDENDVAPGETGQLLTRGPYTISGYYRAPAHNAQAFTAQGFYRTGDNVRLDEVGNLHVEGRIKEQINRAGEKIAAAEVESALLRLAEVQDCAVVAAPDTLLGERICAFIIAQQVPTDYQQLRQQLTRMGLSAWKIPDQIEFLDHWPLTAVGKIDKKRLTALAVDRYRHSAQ

[2] = tested on: Mycobacterium tuberculosis; assay: Antimicrobial activity against Mycobacterium tuberculosis H37Rv assessed as inhibition of bacterial growth in iron-supplemented medium after 8 days; type: functional, organism-based; conditions: 192 h
[3] = tested on: Mycobacterium tuberculosis; assay: Inhibition of siderophore production in Mycobacterium tuberculosis H37Rv at 200 uM after 12 hrs by radiometric assay; type: functional, organism-based
[4] = tested on: Mycobacterium tuberculosis; assay: Antimicrobial activity against Mycobacterium tuberculosis H37Rv assessed as inhibition of bacterial growth in iron-deficient medium after 8 days; type: functional, organism-based; conditions: 192 h
[5] = tested on: Yersinia pestis; assay: Antimicrobial activity against Yersinia pestis assessed as inhibition of bacterial growth in iron-supplemented medium after 22 hrs; type: functional, organism-based
[6] = target: T2, Pyochelin synthase PchD (Pseudomonas aeruginosa, UniProt Q9HWG3); assay: Inhibition of adenylation activity of Pseudomonas aeruginosa PchD after 15 mins by ATP-[32P]pyrophosphate exchange assay
T2 sequence (Q9HWG3 whole entry): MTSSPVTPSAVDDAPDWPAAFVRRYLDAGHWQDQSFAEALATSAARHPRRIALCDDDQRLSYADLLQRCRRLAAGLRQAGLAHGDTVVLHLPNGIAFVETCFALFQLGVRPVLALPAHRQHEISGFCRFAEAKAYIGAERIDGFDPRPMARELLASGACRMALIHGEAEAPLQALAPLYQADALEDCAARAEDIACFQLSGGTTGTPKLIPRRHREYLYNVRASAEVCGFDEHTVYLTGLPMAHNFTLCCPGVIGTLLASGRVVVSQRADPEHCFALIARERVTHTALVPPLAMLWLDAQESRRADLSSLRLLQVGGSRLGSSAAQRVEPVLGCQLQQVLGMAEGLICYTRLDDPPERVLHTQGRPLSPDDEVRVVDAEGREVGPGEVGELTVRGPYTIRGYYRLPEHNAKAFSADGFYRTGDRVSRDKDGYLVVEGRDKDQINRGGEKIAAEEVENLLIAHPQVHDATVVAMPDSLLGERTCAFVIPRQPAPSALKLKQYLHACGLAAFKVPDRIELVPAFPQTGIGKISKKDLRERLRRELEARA

[7] = tested on: Yersinia pestis; assay: Antimicrobial activity against Yersinia pestis assessed as inhibition of bacterial growth in iron-deficient medium after 22 hrs; type: functional, organism-based

Structure (SMILES) | inhibition [1] | IC50 [2] | inhibition [3] | IC50 [4] | IC50 [5] | IC50 [6] | IC50 [7]
Nc1ncnc2c1ncn2[C@@H]1O[C@H](COS(N)(=O)=O)[C@@H](O)[C@H]1O | inactive | – | – | – | – | – | –
Nc1ncnc2c1ncn2[C@@H]1O[C@H](COS(=O)(=O)NC(=O)c2ccccc2O)[C@@H](O)[C@H]1O | – | 39.9 µM | Active | 2.2 µM | > 400 µM | 0.0125 µM | 51.2 µM
